Laboratory results as given in patent publication US20220274967A1, “BCAT MODULATION” (Icagen, LLC, priority 2019, published 2022).
pIC50: −log10 of the molar value. Like-named read-outs stand apart in the source and are kept apart here.

Key:
BCAT1 = biological target: T1, BCAT1 (Homo sapiens, UniProt P54687); experiment: BCAT1 enzyme inhibition (human), Glutamate Glo luminescence; format: biochemical
T1 sequence (P54687 1-386): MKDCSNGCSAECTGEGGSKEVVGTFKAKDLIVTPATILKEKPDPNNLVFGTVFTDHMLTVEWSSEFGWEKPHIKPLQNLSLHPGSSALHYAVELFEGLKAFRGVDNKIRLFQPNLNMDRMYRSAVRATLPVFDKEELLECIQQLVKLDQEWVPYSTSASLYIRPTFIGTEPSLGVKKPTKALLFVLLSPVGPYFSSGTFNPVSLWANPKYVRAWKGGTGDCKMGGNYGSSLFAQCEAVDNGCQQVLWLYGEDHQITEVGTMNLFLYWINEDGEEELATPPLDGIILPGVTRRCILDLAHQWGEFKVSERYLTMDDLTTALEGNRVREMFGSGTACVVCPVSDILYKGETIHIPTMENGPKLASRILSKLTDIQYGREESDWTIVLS
Protocol: The BCAT1 inhibitory activity of selected compounds of the present disclosure were also evaluated. Compounds were prepared as up to 10 mM stock solutions generally using DMSO as the vehicle. 10-point dose response curves were generated using the Echo-550 (Labcyte) acoustic dispenser. Compound source plates ([…]) were made by serially diluting compound stocks to create 1 mM, 0.1 mM, and 0.01 mM solutions in DMSO into Echo certified LDV plates. The Echo then serially spotted 100% DMSO stock solutions into source dose response plates to generate a semi-log fold dilution scheme. 100% DMSO was added to the spotted dose response plates to bring the final volume to 5 μL, creating a 333× stock plate. 120 nL of the dose response stock plate was then spotted into the assay plate. 10 μL of assay buffer (50 mM Tris with 0.05% TWEEN-20) was then added to the plates resulting in a 4× working concentration in the assay plate. Final assay test concentration range was 3 μM to 0.0001 μM with a final DMSO concentration of 0.3%.
BCAT1 enzyme stock was first diluted to a 4× working concentration of 0.24 μg/mL in assay buffer (final assay concentration is 0.06 ug/ml). 10 μL of the 4×BCAT1 solution was then added to the previously prepared assay plate containing test compound or controls, and incubated at room temperature, protected from light, for either 10 or 60 minutes. After the compound incubation period, 20 μL of assay buffer plus 2× substrate is added to all wells (Final assay concentration of substrates is 300 μM L-leucine and 250 μM alpha-ketoglutaric acid). Enzyme reaction was then incubated for 10 minutes at room temperature. After the 10 minute incubation, the enzymatic reaction was halted with the addition of 5 μL of 0.6N HCl and incubated for 1 min. 5 μL of 1M Tris (pH 8.0) was then added to neutralize pH. 12.5 μL of the quenched assay volume was then transferred to a white, 384 well plate and 12.5 μL of Glutamate detection reagent was added (detection reagent prepared per Promega Glutamate Glo kit instructions). Plates were then incubated for 30 minutes at room temperature, protected from light. After glutamate detection incubation period, luminescence was read on BMG Novostar and relative light units was measured and exported for analysis.
Compound modulation of BCAT1 enzymatic activity was determined as follows. IC50 values were calculated in ActivityBase, using a 4-parameter fit equation. Data was normalized to maximum inhibition form the reference agent VS558CSA (at 10 μM). Relative light units were exported for analysis and % inhibition values for each well were calculated using the following formula: […]

BCAT2 = biological target: T2, BCAT2 (Homo sapiens, UniProt O15382); experiment: BCAT2 enzyme inhibition (human); format: biochemical
T2 sequence (O15382 28-392): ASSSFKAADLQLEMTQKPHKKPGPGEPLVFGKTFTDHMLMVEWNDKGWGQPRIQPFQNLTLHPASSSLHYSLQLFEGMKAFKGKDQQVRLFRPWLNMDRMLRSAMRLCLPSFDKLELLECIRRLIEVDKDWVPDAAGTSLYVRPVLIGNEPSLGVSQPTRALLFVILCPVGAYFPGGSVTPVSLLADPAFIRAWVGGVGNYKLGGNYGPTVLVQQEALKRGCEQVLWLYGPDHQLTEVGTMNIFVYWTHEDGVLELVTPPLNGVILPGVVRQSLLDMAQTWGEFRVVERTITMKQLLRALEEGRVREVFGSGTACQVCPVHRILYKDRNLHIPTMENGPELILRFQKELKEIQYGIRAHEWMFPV
Protocol: In further embodiments, the functional modulation of BCAT2 is assayed using a cell-free assay. In various embodiments, the cell-free assay is an enzyme-coupled fluorescent assay. For example, the disclosure contemplates use of an assay that monitors the production of L-glutamate from branch-chain amino acids and α-ketoglutarate through the coupling of hBCATm activity to two additional enzymes, L-Glutamate Oxidase (L-GOx) and Horseradish Peroxidase (HRP). Specifically, L-GOx catabolizes L-glutamate to generate α-ketoglutarate and […], the latter being utilized by HRP and leading to the formation of fluorescent resorufin from the redox-sensitive dye Amplex Red. In some embodiments, the test compound is classified as a candidate compound if a decrease in L-glutamate is measured. In further embodiments, the test compound is classified as a candidate compound if a decrease in α-ketoglutarate is measured.

GM00371 cells = experiment: Viability assay (Cell titer glo) in the 3-HIB assay; format: cell-based, human; conditions: read-out: 3HIB INHIBITION IC50 (μM) MEAN GM00371 cells Viablility Assay
Protocol: Cell Plating: Cells (Coriell Institute GM00371 cells) were plated (96-well clear bottom sterile plate; Greiner 655098) at 10,000 cells/0.1 mL in Eagle's minimum essential medium (EMEM)/15% FBS (Gibco 16000-044) with a Combi dispenser in a cell culture hood and incubated at 37° C. and 5% CO2 overnight.
Compound Dilution: Compound were prepared as 33.3× intermediate dilution in DMSO in 96 well round polystyrene plates. For 30 μM final maximum start with 30 μL of 10 mM in DMSO. 10-12 1:3 serial dilutions were prepared from left to right (20 μL+40 μL DMSO). A 10× secondary dilution was prepare in EMEM by taking 7.5 μL 33.3× and transfer to replicate 96 well round polystyrene plates and then adding 242.5 μL EMEM A 1× final dilution in EMEM was prepared by taking 50 μL 10× dilution and transferring to replicate 96 well polypropylene assay block (Costar 3956) and adding 450 μL EMEM A control was prepared for maximal compound inhibition by taking 20 μL 10 mM Reference Compound A and adding 40 μL DMSO for a concentration of 3.3 mM To 7.5 μL of the 3.3 mM Reference Compound A solution and added 242.5 μL EMEM to make a 100 μM solution. The subsequent Reference Compound A solution was diluted with EMEM to achieve a final concentration of 10 μM. The structure of Reference Compound A is:
A control was prepared for maximal compound toxicity by taking 7.5 μL Reference Compound B and 242.5 μL EMEM to make […]. 50 μL of that 100 μM Reference Compound B solution was combined with 450 μL EMEM to achieve a concentration of 30 μM. The structure of Reference Compound B is
Compound Treatment: Media was aspirated from the cells and 100 μL of D-PBS (ThermoFisher 14190144) was added and then removed. 100 μL of diluted compound was added to the cells in the place and the cells were incubated at 37° C. and 5% CO2 for 24 hours.
Viability Assay: To the cells remaining in the plate 25 μL D-PBS and 25 μL Cell titer glo reagent (Promega G7572). The plate was placed on a shaker for 2 minutes, incubated at room temperature in the dark and then read on a Clariostar microplate reader.

| pIC50 (BCAT1) | pIC50 (BCAT2) | Compound | IC50 (GM00371 cells; Homo sapiens, 24 h) [µM] | IC50 (GM00371 cells; 24 hours) [µM] |
| --- | --- | --- | --- | --- |
| ≤ 6.00 |  | CNC(=O)c1ccc2c(c1)nc(-c1ccccn1)n2[C@@H]1CCC[C@@H](NC(=O)c2ccc(Br)s2)C1 [Compound 101] |  |  |
| ≤ 6.00 | > 7.00 | CNC(=O)c1ccc2c(c1)nc(-c1ncccn1)n2[C@H]1CCC[C@@H](NC(=O)c2ccc(Br)s2)C1 [Compound 147] |  |  |
| ≤ 6.00 | 6.30 to 7.00 | CNC(=O)c1ccc2c(c1)nc(-c1cnccn1)n2[C@H]1CCC[C@@H](NC(=O)c2ccc(Br)s2)C1 [Compound 149] |  |  |
| ≤ 6.00 | < 6.00 | CNC(=O)c1ccc2c(c1)nc(-c1ccc(O)cn1)n2[C@H]1CCC[C@@H](NC(=O)c2ccc(C#N)s2)C1 [Compound 173] |  |  |
| 6.00 to 6.30 | > 7.00 | CNC(=O)c1ccc2c(c1)nc(-c1c(O)ccc(F)c1F)n2[C@H]1CCC[C@@H](NC(=O)c2ccc(Br)s2)C1 [Compound 180] |  |  |
| ≤ 6.00 | > 7.00 | N#Cc1ccc2c(c1)nc(-c1ccccn1)n2[C@H]1CCC[C@@H](NC(=O)c2ccc(Br)s2)C1 [Compound 194] |  |  |
| ≤ 6.00 | > 7.00 | N#Cc1ccc2c(c1)nc(-c1ccccn1)n2[C@H]1CCC[C@@H](NC(=O)c2ccc(Cl)s2)C1 [Compound 195] |  |  |
| ≤ 6.00 | < 6.00 | CNC(=O)c1ccc2c(c1)nc(-c1ccccc1F)n2[C@H]1CCC[C@@H](C(=O)Nc2ccccc2)C1 [Compound 202] |  |  |
| ≤ 6.00 | < 6.00 | CNC(=O)c1ccc2c(c1)nc(-c1ccccc1C#N)n2[C@H]1CCC[C@@H](C(=O)Nc2ccccc2)C1 [Compound 203] |  |  |
| ≤ 6.00 | 6.30 to 7.00 | CCCNC(=O)c1ccc2c(c1)nc(-c1ccccn1)n2[C@@H]1CCC[C@H](NC(=O)c2ccc(Br)s2)C1 [Compound 204] |  |  |
|  | > 7.00 | CNC(=O)c1cc2nc(-c3ccccc3F)n([C@H]3CCC[C@@H](NC(=O)c4ccc(Br)s4)C3)c2cc1OC [Compound 213] | < 0.1 |  |
|  | > 7.00 | CNC(=O)c1cc2nc(-c3ccccn3)n([C@H]3CCC[C@@H](NC(=O)c4ccc(Cl)s4)C3)c2cc1OC [Compound 214] | 0.1 to 0.5 |  |
|  | > 7.00 | CNC(=O)c1ccc2c(c1)nc(-c1c(F)cccc1F)n2[C@H]1CCC[C@@H](NC(=O)c2ccc(Br)s2)C1 [Compound 215] |  | 0.1 to 0.5 |
|  | > 7.00 | CNC(=O)c1ccc2c(c1)nc(-c1cccc(F)n1)n2[C@H]1CCC[C@@H](NC(=O)c2ccc(Br)s2)C1 [Compound 216] | ≥ 1 |  |
| ≤ 6.00 | < 6.00 | CNC(=O)c1ccc2c(c1)nc(-c1ccccn1)n2C1CCCN(C(=O)Nc2cccc(Cl)c2)C1 (stereo not shown) [Compound 217] |  |  |
| ≤ 6.00 | < 6.00 | CNC(=O)c1ccc2c(c1)nc(-c1cccc(F)c1)n2C1CCCN(C(=O)Nc2ccccc2Cl)C1 (stereo not shown) [Compound 227] |  |  |
| ≤ 6.00 | < 6.00 | CNC(=O)c1ccc2c(c1)nc(-c1cccc(F)c1)n2C1CCCN(C(=O)Nc2cccs2)C1 (stereo not shown) [Compound 228] |  |  |
| ≤ 6.00 | < 6.00 | CNC(=O)c1ccc2c(c1)nc(-c1cccc(F)c1)n2C1CCCN(C(=O)Nc2ccc(Br)s2)C1 (stereo not shown) [Compound 229] |  |  |
| ≤ 6.00 | > 7.00 | CNC(=O)c1cc2nc(-c3c(F)ccc(F)c3O)n([C@H]3CCC[C@@H](NC(=O)c4ccc(Cl)s4)C3)c2cc1F [Compound 231] |  |  |
| ≤ 6.00 | > 7.00 | CNC(=O)c1cc2nc(-c3c(F)ccc(F)c3O)n([C@H]3CCC[C@@H](NC(=O)c4ccc(C#N)s4)C3)c2cc1F [Compound 232] |  |  |
| 6.00 to 6.30 | > 7.00 | CNC(=O)c1cc2nc(-c3c(F)ccc(F)c3O)n([C@H]3CCC[C@@H](NC(=O)c4ccc(Br)s4)C3)c2cc1F [Compound 233] |  |  |
| ≤ 6.00 | 6.00 to 6.30 | CNC(=O)c1cc2nc(-c3ccccn3)n([C@H]3CCC[C@@H](NC(=O)c4ccc(Cl)s4)C3)c2cc1Cl [Compound 235] |  |  |
| ≤ 6.00 | 6.30 to 7.00 | CNC(=O)c1cc2nc(-c3ncccc3F)n([C@H]3CCC[C@@H](NC(=O)c4ccc(Cl)s4)C3)c2cc1Cl [Compound 236] |  |  |
| ≤ 6.00 | 6.30 to 7.00 | CNC(=O)c1cc2nc(-c3ncccc3F)n([C@H]3CCC[C@@H](NC(=O)c4ccc(Br)s4)C3)c2cc1Cl [Compound 237] |  |  |
|  | < 6.00 | CNC(=O)c1ccc2c(C3CCCC(NC(=O)c4ccc(Br)s4)C3)c(-c3ccccc3)[nH]c2c1 (stereo not shown) [Compound 283, 3-(3-(5-bromothiophene-2-carboxamido)cyclohexyl)-N-methyl-2 phenyl-1H-indole-6-carboxamide] | ≥ 1 |  |
|  | < 6.00 | CNC(=O)c1ccc2c(C3CCCC(NC(=O)c4cccs4)C3)c(-c3ccccc3)[nH]c2c1 (stereo not shown) [Compound 290] | ≥ 1 |  |
|  | > 7.00 | CNC(=O)c1cc2nc(-c3ccccc3)n([C@H]3CCC[C@@H](NC(=O)c4ccc(Br)s4)C3)c2cn1 [Compound 297] | 0.1 to 0.5 |  |
|  | < 6.00 | CNC(=O)c1ccc2c(C3CCCC(NC(=O)c4ccc(-c5ccccc5)s4)C3)c(-c3ccccc3)[nH]c2c1 (stereo not shown) [Compound 304] | ≥ 1 |  |
